Reference: patent US11570982B2, “Systems and methods for natural cryoprotectants for preservation of cells” (Membrane Protective Technologies, Inc., priority 2016, dated 2023)

Experiment: Antioxidant activity (Trolox equivalent) of materials substituted for glycerol

With `OCC(O)CO` [Glycerol, glycerol] the “Antioxidant (Trolox equivalent μM/g)” value was 0 µM/g.
